Assay results published in ChEMBL document CHEMBL5528064, “Invention of MK-7845, a SARS-CoV-2 3CL Protease Inhibitor Employing a Novel Difluorinated Glutamine Mimic” (J Med Chem, 2024).
Converted amounts (≈) assume the structure as drawn.

Assays:
[1] = Plasma stability in rat assessed as epimerization at 1 uM measured upto 3 hrs by LC-MS/MS analysis; format: ADME, cell-free
[2] = Aqueous solubility of compound; format: physicochemical; conditions: buffer
CYP3A [3] = target: T1, CYP3A (Homo sapiens, UniProt P08684+P20815+P24462+Q9HB55); experiment: Reversible inhibition of CYP3A in human liver microsomes incubated for 5 mins in presence of NADPH-generating system by LC-MS/MS analysis; format: ADME, Microsome
[4] = Plasma protein binding in dog assessed as unbound fraction at 1 uM; format: ADME, cell-free, Canis lupus familiaris
[5] = Plasma stability in rhesus monkey assessed as epimerization; format: ADME, cell-free, Macaca mulatta
[6] = Plasma protein binding in monkey assessed as unbound fraction at 1 uM; format: ADME, cell-free, Macaca mulatta; conditions: rhesus monkey
SARS-CoV-2 [7] = experiment: Antiviral activity against SARS CoV-2 USA-WA1/2020 infected in B6.Cg-Tg(K18-ACE2)2Prlmn/J mouse assessed as fold reduction in viral load in lung at 500 mg/kg, po bid measured on day 4 post inoculation; format: functional, Severe acute respiratory syndrome coronavirus 2; conditions: time 4 day
CYP3A [8] = target: T1, CYP3A; experiment: Time dependent inhibition of CYP3A in human liver microsomes assessed as inhibition constant; format: ADME, Microsome
[9] = Volume of distribution at steady state in rat by measuring compound and its epimer at 3 mg/kg, po or 1 mg/kg, iv measured upto 24 hrs by LC-MS analysis; format: ADME, organism-based; conditions: in vivo
Cytochrome P450 2B6 = target: T2, Cytochrome P450 2B6 (Homo sapiens, UniProt P20813); experiment: Reversible inhibition of CYP2B6 in human liver microsomes using bupropion as substrate incubated for 5 mins in presence of NADPH-generating system by LC-MS/MS analysis; format: ADME, Microsome
T2 sequence (P20813 whole entry): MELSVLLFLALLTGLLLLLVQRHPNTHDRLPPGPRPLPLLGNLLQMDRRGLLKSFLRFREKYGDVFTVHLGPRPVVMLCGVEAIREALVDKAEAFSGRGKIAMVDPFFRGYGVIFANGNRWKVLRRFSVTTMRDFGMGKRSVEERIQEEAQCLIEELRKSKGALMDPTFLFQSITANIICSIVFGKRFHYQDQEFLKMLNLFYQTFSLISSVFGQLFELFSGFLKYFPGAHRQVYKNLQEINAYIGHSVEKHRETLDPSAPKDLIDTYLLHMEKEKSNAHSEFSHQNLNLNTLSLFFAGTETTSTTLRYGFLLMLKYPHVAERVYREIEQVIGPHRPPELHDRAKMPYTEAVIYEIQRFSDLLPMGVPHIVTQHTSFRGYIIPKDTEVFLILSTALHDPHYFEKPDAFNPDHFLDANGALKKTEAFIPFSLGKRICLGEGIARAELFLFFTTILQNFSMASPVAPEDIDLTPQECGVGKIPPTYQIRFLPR

SARS-CoV-2 [10] = experiment: Antiviral activity against SARS-CoV-2 Delta B.1.617 AY-2 infected in human A549-hACE2-TMPRSS2 cells assessed as inhibition of virus induced cytopathic effect incubated for 72 hrs by celltiter glo assay; format: functional, organism-based; conditions: Severe acute respiratory syndrome coronavirus 2, Delta B.1.617 AY-2, A549-hACE2-TMPRSS2, 72 h
Cytochrome P450 1A2 = target: T3, Cytochrome P450 1A2 (Homo sapiens, UniProt P05177); experiment: Reversible inhibition of CYP1A2 in human liver microsomes using phenacetin as substrate incubated for 5 mins in presence of NADPH-generating system by LC-MS/MS analysis; format: ADME, Microsome
T3 sequence (P05177 whole entry): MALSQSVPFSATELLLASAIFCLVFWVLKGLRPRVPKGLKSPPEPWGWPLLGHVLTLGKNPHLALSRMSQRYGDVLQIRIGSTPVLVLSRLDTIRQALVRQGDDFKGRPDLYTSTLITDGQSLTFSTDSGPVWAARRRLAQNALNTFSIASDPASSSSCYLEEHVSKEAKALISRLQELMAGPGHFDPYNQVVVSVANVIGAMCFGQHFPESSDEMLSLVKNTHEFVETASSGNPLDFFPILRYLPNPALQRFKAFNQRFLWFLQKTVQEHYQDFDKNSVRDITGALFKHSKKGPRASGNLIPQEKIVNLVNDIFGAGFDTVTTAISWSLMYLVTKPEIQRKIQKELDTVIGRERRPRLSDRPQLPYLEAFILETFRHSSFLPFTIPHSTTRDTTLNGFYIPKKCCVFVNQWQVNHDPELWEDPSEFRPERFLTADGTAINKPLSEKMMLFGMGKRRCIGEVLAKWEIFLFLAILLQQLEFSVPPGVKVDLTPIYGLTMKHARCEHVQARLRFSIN

[11] = Plasma stability in dog assessed as epimerization at 1 uM measured upto 3 hrs by LC-MS/MS analysis; format: ADME, cell-free, Canis lupus familiaris
SARS-CoV-2 [12] = experiment: Antiviral activity against SARS CoV-2 USA-WA1/2020 infected in po dosed B6.Cg-Tg(K18-ACE2)2Prlmn/J mouse assessed as reduction in viral RNA level administered orally twice daily and measured on day 4 post inoculation by RT-PCR analysis; format: functional, organism-based; conditions: Severe acute respiratory syndrome coronavirus 2, dose 100-500 mg/kg, time 4.0 day
Cytochrome P450 2C8 = target: T4, Cytochrome P450 2C8 (Homo sapiens, UniProt P10632); experiment: Reversible inhibition of CYP2C8 in human liver microsomes using amodiaquine as substrate incubated for 5 mins in presence of NADPH-generating system by LC-MS/MS analysis; format: ADME, Microsome
T4 sequence (P10632 whole entry): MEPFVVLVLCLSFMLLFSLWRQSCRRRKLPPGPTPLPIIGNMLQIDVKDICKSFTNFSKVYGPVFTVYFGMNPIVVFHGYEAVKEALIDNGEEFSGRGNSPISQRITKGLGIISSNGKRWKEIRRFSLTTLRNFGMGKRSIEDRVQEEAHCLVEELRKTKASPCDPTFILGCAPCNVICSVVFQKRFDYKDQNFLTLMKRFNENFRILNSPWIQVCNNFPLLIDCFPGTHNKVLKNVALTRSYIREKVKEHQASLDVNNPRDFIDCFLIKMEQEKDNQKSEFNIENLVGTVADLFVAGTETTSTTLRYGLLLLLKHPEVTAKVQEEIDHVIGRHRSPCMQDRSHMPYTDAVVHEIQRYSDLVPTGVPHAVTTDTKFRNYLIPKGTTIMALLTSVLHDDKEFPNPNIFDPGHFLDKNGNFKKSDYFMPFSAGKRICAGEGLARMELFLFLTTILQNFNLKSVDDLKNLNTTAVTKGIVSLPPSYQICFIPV

Cytochrome P450 2D6 = Cytochrome P450 2D6 (Homo sapiens, UniProt P10635); experiment: Reversible inhibition of CYP2D6 in human liver microsomes using dextromethorphan as substrate incubated for 5 mins in presence of NADPH-generating system by LC-MS/MS analysis; format: ADME, Microsome
Cytochrome P450 2D6, sequence (P10635 whole entry): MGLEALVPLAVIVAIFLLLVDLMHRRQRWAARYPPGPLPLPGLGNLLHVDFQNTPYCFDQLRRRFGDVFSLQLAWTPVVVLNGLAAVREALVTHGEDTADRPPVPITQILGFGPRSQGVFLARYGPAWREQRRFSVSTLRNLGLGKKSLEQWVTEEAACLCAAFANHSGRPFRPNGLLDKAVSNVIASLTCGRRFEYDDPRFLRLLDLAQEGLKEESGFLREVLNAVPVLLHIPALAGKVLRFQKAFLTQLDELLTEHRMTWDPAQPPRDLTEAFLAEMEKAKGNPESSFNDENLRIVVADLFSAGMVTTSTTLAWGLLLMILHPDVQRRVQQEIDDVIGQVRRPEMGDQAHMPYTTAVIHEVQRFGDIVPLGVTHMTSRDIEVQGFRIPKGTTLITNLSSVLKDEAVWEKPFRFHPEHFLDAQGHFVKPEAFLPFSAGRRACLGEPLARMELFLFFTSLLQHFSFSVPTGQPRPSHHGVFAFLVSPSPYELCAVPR

[13] = Lipophilicity, logD of compound at pH 8 by HPLC analysis; format: physicochemical; conditions: buffer
[14] = Oral bioavailability in human; format: ADME, organism-based; conditions: in vivo

CNC(=O)C(=O)[C@H](CCC(C)(F)F)NC(=O)[C@@H]1[C@H]2CCC[C@H]2CN1C(=O)[C@@H](NC(=O)OC)C(C)(C)C
Stability [1]: Unstable
solubility [2]: 4500 µg/mL (≈ 8.71 mM)
IC50 at 5 min (CYP3A [3]): 118 µM
fraction unbound at 1 µM [4]: 0.09
Stability [5]: Unstable
fraction unbound at 1 µM [6]: 0.5
fold change (FC) (SARS-CoV-2 [7]): 5
Ki (CYP3A [8]): 110 µM
Vdss [9]: 2.8 L/kg
IC50 (Cytochrome P450 2B6): 159 µM
IC50 (SARS-CoV-2 [10]): 351 nM
IC50 (Cytochrome P450 1A2): > 200 µM
Stability [11]: Unstable
Activity (SARS-CoV-2 [12]): Dose-Dependent Effect
IC50 (Cytochrome P450 2C8): > 200 µM
IC50 (Cytochrome P450 2D6): > 200 µM
logD [13]: 2.49
bioavailability [14]: 67%
